Substitutions are numbered along the chain they refer to.
How the values were obtained:
Assay type in all cases: cell-based
androgen receptor (AR) [1] = molecular target: T1, androgen receptor (AR) (Homo sapiens, UniProt P10275, T878A); assay: AR degradation activity in LNCAP cells (Western blot); conditions: LNCAP cell line, 24 hours after administration; DC50 = concentration for 50% target protein degradation
T1 construct: endogenous in cells; host or cells: LNCAP
T1 sequence (P10275 1-920 T878A): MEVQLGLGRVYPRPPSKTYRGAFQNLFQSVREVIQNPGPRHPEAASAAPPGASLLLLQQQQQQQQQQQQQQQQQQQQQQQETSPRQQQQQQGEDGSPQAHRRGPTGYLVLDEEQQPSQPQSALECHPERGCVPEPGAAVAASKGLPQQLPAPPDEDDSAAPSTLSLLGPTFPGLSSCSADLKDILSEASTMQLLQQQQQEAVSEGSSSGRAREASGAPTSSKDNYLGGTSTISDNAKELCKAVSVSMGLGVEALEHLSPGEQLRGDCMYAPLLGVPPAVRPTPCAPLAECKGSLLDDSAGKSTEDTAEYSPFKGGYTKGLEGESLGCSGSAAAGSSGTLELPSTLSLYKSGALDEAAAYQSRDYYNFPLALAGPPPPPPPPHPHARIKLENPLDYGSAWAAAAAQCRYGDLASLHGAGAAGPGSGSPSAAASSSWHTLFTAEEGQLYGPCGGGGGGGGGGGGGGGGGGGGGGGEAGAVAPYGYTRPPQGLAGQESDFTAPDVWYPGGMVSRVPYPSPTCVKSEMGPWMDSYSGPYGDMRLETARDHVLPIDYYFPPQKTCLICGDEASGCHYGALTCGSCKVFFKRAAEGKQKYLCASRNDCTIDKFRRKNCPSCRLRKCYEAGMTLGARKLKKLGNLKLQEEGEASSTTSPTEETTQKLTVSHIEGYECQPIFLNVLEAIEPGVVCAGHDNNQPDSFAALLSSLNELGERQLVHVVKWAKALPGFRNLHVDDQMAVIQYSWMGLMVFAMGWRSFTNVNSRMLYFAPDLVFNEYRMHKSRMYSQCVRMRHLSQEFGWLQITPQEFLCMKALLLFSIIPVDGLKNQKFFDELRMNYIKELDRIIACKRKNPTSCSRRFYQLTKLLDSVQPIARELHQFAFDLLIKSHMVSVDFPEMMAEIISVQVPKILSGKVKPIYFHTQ
Protocol: (§1) LNCAP, VCAP and 22Rv1 cells were plated in 24-well plates at 1.5×10E5 cells/well in the RPMI growth medium containing 10% FBS and 1% Penicillin Streptomycin, and then incubated at 37° C. overnight. The following day, the test compound was administered to the cells by using 1000× compound stock solution prepared in DMSO at various concentrations. After administration of the compound, the cells were then incubated at 37° C. for 24 hours. Upon completion, the cells were washed with PBS and protein was collected in Laemmli sample buffer (1×; VWR International). Proteins in cell lysate were separated by SDS-PAGE and transferred to Odyssey nitrocellulose membranes (Licor) with iblot® dry blotting transfer system (ThermoFisher). Nonspecific binding was blocked by incubating membranes with Intercept Blocking Buffer (Licor) for 1 hour at room temperature with gentle shaking. The membranes were then incubated overnight at 4° C. with Primary antibodies rabbit anti-AR (1:1,000, Cell Signaling, 5153) and mouse anti-GAPDH (1:5,000, Santa Cruz Biotechnology, sc-47724) diluted in Intercept Blocking Buffer containing 0.1% Tween 20. After washing 3 times with TBS-T, the membranes were incubated with IRDye® […] goat anti-mouse IgG (1:20,000, Licor) or IRDye®8000W goat anti-rabbit IgG (1:20,000, Licor) for 1 hour. After TBS-T washes, membranes were rinsed in TBS and scanned on Odyssey® CLx Imaging System (Licor). The bands were quantified using Image Studio™ Software (Licor).
(§2) Table 4 summarizes the androgen receptor (AR) degradative activity and cell growth inhibition of exemplary compounds in (a) LNCAP, VCAP, and 22Rv1 cell lines 24 hours after administration of the compound; (b) RAMOS cell line 3 days after administration of the compound; and (c) VCAP cell line 6 days after administration of the compound. DC50: compound concentration needed for 50% target protein degradation.

RAMOS cells = assay: Cell growth inhibition for Ramos cells (CellTiter-Glo); conditions: Homo sapiens, 72 h; RAMOS cell line, 3 days after administration
Protocol: RAMOS cells (ATCC) were seeded in 96-well plates at 16,000 cell/well in 90 μl of RPMI growth medium containing 10% Heat-Inactivated Fetal Bovine Serum and 1% Penicillin/Streptomycin. The test compound was administered to the cells by using 10× compound stock solution prepared in growth medium at various concentrations. After administration of the compound, cells were then incubated at 37° C. for 3 days. Before CellTiter-Glo assay, the plates were equilibrated at room temperature for approximately 10 minutes. 100 ul of CellTiter-Glo® Reagent (Promega) was added to each well. The plates were then incubated at room temperature for 10 minutes and luminescence was recorded by EnSpire plate reader (PerkinElmer).
as §2

androgen receptor (AR) [2] = assay: AR degradation activity in 22Rv1 cells (Western blot); conditions: 22Rv1 cell line, 24 hours after administration; DC50 = concentration for 50% target protein degradation
Protocol: as §1, §2

androgen receptor (AR) [3] = molecular target: T2, androgen receptor (AR) (Homo sapiens, UniProt P10275); assay: AR degradation activity in VCAP cells (Western blot); conditions: VCAP cell line, 24 hours after administration; DC50 = concentration for 50% target protein degradation
T2 construct: endogenous in cells; host or cells: VCAP
T2 sequence (P10275 1-920): T1 sequence (P10275 1-920 T878A) with A878T
Protocol: as §1, §2

VCAP cells = assay: Cell growth inhibition for VCAP cells (CellTiter-Glo); conditions: Homo sapiens, 144 h; VCAP cell line, 6 days after administration, 0.1 nM R1881, charcoal-stripped FBS
Protocol: VCAP cells (ATCC) were seeded in 96-well plates at 3000 cell/well in 80 μl of DMEM growth medium containing 10% charcoal-stripped FBS (CSS) and 1% Penicillin/Streptomycin. Cells were incubated at 37° C. overnight. The following day, the test compound was administered to the cells by using 10× compound stock solution prepared in growth medium at various concentrations. Four hours later, 0.1 nM R1881 (Sigma) was administered to the cells by using 10× compound stock solution prepared in growth medium. 0.1% DMSO with or without 0.1 nM R1881 was administered as control. Cells were then incubated at 37° C. for 6 days. Before CelTiter-Glo assay, the plates were equilibrated at room temperature for approximately 10 minutes. 100 ul of CellTiter-Glo® Reagent (Promega) was added to each well. The plates were then incubated at room temperature for 10 minutes and luminescence was recorded by EnSpire plate reader (PerkinElmer).
as §2

Row | DC50 (androgen receptor (AR) [1]) [nM] | GI50 (RAMOS cells) [nM] | DC50 (androgen receptor (AR) [2]) [nM] | DC50 (androgen receptor (AR) [3]) [nM] | GI50 (VCAP cells) [nM] | SMILES
1 | 0.1 | > 3000 | 0.25 | 0.3 | 5.7 | CC1(C)C(NC(=O)c2ccc(N3CCC(CN4CCN(c5ccc6c(c5)CN([C@H]5CCC(=O)NC5=O)C6=O)CC4)CC3)c(F)c2)C(C)(C)C1Oc1ccc(C#N)c2ncccc12 (some centres unmarked) [Compound 2-32]
2 | 0.4 | > 3000 | 0.4 | 0.4 | 8.2 | CC1(C)[C@H](NC(=O)c2ccc(N3CCC(CN4CCN(c5ccc6c(c5)CN([C@H]5CCC(=O)NC5=O)C6=O)CC4)CC3)cc2)C(C)(C)[C@H]1Oc1ccc(C#N)c2ncccc12 [Compound 2-49, N-((1,3-trans)-3-((8-cyanoquinolin-5-yl)oxy)-2,2,4,4-tetramethylcyclobutyl)-4-(4-((4-(2-((S)-2,6-dioxopiperidin-3-yl)-1-oxoisoindolin-5-yl)piperazin-1-yl)methyl)piperidin-1-yl)benzamide]

The next lines start with the molecule.

Row | SMILES | DC50 (androgen receptor (AR) [1]) [nM] | GI50 (RAMOS cells) [nM] | DC50 (androgen receptor (AR) [2]) [nM] | DC50 (androgen receptor (AR) [3]) [nM] | GI50 (VCAP cells) [nM]
3 | CC1(C)C(NC(=O)c2ccc(N3CCC(CN4CCN(c5ccc6c(c5)C(=O)N(C5CCC(=O)NC5=O)C6=O)CC4)CC3)cc2)C(C)(C)C1Oc1ccc(C#N)c2ncccc12 (stereo not drawn) [Compound 2-21, N-(1,3-trans)-3-((8-cyanoquinolin-5-yl)oxy)-2,2,4,4-tetramethylcyclobutyl)-4-(4-((4-(2-(2,6-dioxopiperidin-3-yl)-1,3-dioxoisoindolin-5-yl)piperazin-1-yl)methyl)piperidin-1-yl)benzamide] | 2.2 | > 3000 | 0.9 | 1.2 | 18
4 | CC1(C)C(NC(=O)c2ccc(N3CCC(CN4CCN(c5ccc6c(c5)CN([C@H]5CCC(=O)NC5=O)C6=O)CC4)CC3)nc2)C(C)(C)C1Oc1ccc(C#N)c2ncccc12 (some centres unmarked) [Compound 2-29] | 0.1 | > 3000 | 0.13 | – | 2.1
5 | CC1(C)[C@H](NC(=O)c2ccc(N3CCC(CN4CCN(c5ccc6c(c5)C(=O)N(C5CCC(=O)NC5=O)C6=O)CC4)CC3)c(F)c2)C(C)(C)[C@H]1Oc1ccc(C#N)c2ncccc12 (some centres unmarked) [Compound 2-22] | 1 | – | 2.8 | 1.7 | 8

Source: US11312702B2, “Substituted quinoline-8-carbonitrile derivatives having androgen receptor degradation activity and uses thereof” (ACCUTAR BIOTECHNOLOGY INC., priority 2019, dated 2022)
